Data from US12674795B2, “Method for peritoneal metastatic cell detection and isolation thereof” (THE UNIVERSITY OF HONG KONG, priority 2019, dated 2026).

Columns and labels:
[1] = system: M-CSC-HPMC interaction; assay: Microfluidic perfusion assay of M-CSCs on HPMC-coated channels under shear stress; type: cell-based, human; settings: for effect on M-CSCs binding/adhesion to HPMCs: M-CSCs treated before perfusion, result in words
Protocol: (§1) Microfluidic chips were fabricated as described^13. To coat microfluidic channels with selectin recombinant proteins, channels were incubated with 1 μg mL^−1 selectin-Fc recombinant proteins in PBS at 4° C. overnight. To coat microfluidic channels with HPMCs, channels were incubated with 10 μg mL^−1 human fibronectin in serum free medium overnight at 4° C. After wash, the channels were introduced with HPMCs suspension (3.5×10^6 mL^−1) and cultured overnight under C02 incubator at 37° C. To functionally block selectins, HPMCs were incubated with 20 μg mL^−1 anti-E-selectin, anti-P-selectin, anti-L-selectin or isotype antibody at room temperature for 1 h before the assays.
(§2) CSCs of 70-100 μm diameter were collected with cell strainer, fluorescently labeled with CMFDA Celltracker (2.5 μg mL^−1, C7025, Life Technologies) as per manufacturer's instructions for assays. Fluorescently labeled CSCs resuspended in binding buffer (1500 spheroids mL^−1) were perfused into the microfluidic channel through a syringe pump (LongerPump) under desired shear stresses. The viscosity of the binding buffer (0.9 cp) is within the range of viscosity (0.95±0.15 cp) of ascitic fluid in patients with various ascitic etiologies^48. The motion of cancer spheroids was observed under fluorescent microscope (Nikon ECLIPSE Ti) and serial time lapse images (1 image sec^−1) were captured for 30 sec. More than three randomly chosen areas (4× objective) were captured for each treatment.
(§3) The motion of cancer spheroids under flow was analyzed offline using Image J (National Institutes of Health) and used for the classification of interactions as described^49. Briefly, cancer spheroids that tethered to the surface, then detached in the flow were defined as tethering. Cancer spheroids that moved at a velocity below the hydrodynamic velocity for more than one spheroid diameter were defined as rolling. Cancer spheroids that remained stationary for more than one frame during recording were determined as adhesion. Percentage of tethering or adhesion was calculated by dividing the number of tethering or adherent spheroids by the total number of spheroids flew through the field of observation in the 30 sec duration.
(§4) In some experiments, M-CSCs were incubated with or without neuramidase (100 mU, N2876, Sigma-Aldrich), α1-3,4 fucosidase (150 mU, P0769S, New England BioLabs), OSGE (100 μg mL^−1, CLE100, Cedarlane) or PNGase (10 U mL^−1, P0704S, New England BioLabs) according to the manufacturer's instructions for 1 h at 37° C. prior staining. To inhibit sulfation, M-CSCs were incubated with sodium chlorate (25 mM, 403016, Sigma-Aldrich) in serum-free medium for 48 h. To functionally block sLe^x, sLe^a or IGF-1R on M-CSCs, M-CSCs were incubated with CSLEX-1 (10 μg mL^−1, 551344, BD Biosciences), anti-CA19-9 (10 μg mL^−1, ab15146, Abcam), anti-IGF-1R (2 μg mL^−1, 24-60, Invitrogen) or isotype antibodies for 1 h at 37° C., respectively. To remove cell surface glycoprotein, M-CSCs were incubated with Trypsin/EDTA solution (0.05%, 25300054, Gibco) for 5 min and neutralized with the complete medium. To inhibit glycolipid synthesis, M-CSCs were cultured with or without DL-PPMP (2.5 μM, sc-205655, Santa Cruz) in serum-free medium for 5 days. To test the involvement of RTKs in mediating CSCs adhesion, M-CSCs were treated with or without small molecule inhibitors as indicated in the FIG. 13 before perfusion. All CSC perfusion experiments were repeated with HPMCs isolated from at least 3 different patients.

[2] = system: P-selectin-Fc; assay: Microfluidic perfusion assay of M-CSCs on P-selectin-Fc recombinant protein-coated channels; type: cell-based; settings: for effect on M-CSCs binding/adhesion to P-selectin-Fc: M-CSCs treated before perfusion, result in words
Protocol: as §1, §2, §3, §4

[3] = molecular target: P-selectin recombinant protein (Homo sapiens, UniProt P16109); assay: Flow adhesion assay of HM and NM cells on P-selectin recombinant protein; type: cell-based; settings: 5 mM EDTA solution, shear stress 1 dynes/cm^2 for 1 min
Text: FIG. 9A-9E show results of flow adhesion assay. (A) Transient velocities of representative cells on P-selectin recombinant protein. Triangles represent a rolling adhesion highly metastatic (HM) cells; Circles represent a non-interaction non-metastatic (NM) cells quickly passed through the channel. […] (B) Rolling percentage of NM and HM cells on P-selectin recombinant protein. (C) Cumulative frequency rolling velocity histograms. (D) Adhesion percentage of NM and HM cells on P-selectin recombinant protein. HM or NM cells were introduced into flow chambers pre-coated with […] P-selectin-Fc chimera or Fc control at shear stress of 0.1 dyne/cm2. Cell movement was observed under microscope and captured with high speed camera. Cancer cells rolling velocity was calculated by dividing moving distance with duration. […] Adhesion was defined as cancer cells stop moving for more than one second during recording. The rolling or adhesion fraction was quantified through dividing the number of rolling or adhesive cells by the total number of cells traveled into the field of observation area for 30 seconds. (E) Adhesion percentage of NM and HM cells on P-selectin-Fc chimera at shear stress of 0.05-0.15 dyne/cm2. Data are presented as mean±S.E.; *P<0.05, **P<0.01.
FIG. 10A-10B show EDTA detachment assay. […] (A) A brightfield microscope image of captured HM cells. […]

[4] = molecular target: T1, P-selectin (Mus musculus, UniProt Q01102); assay: Adhesion of tumor cells to the mouse peritoneum; type: in vivo; settings: 1 mg kg^-1 i.p. 1 h prior to injection of M-CSCs from SKOV-3 and ovarian cancer patients; NOD/SCID mice
T1 construct: from tissue; host or cells: peritoneum, mesentery and omentum of living NOD/SCID mice
T1 sequence (Q01102 42-768): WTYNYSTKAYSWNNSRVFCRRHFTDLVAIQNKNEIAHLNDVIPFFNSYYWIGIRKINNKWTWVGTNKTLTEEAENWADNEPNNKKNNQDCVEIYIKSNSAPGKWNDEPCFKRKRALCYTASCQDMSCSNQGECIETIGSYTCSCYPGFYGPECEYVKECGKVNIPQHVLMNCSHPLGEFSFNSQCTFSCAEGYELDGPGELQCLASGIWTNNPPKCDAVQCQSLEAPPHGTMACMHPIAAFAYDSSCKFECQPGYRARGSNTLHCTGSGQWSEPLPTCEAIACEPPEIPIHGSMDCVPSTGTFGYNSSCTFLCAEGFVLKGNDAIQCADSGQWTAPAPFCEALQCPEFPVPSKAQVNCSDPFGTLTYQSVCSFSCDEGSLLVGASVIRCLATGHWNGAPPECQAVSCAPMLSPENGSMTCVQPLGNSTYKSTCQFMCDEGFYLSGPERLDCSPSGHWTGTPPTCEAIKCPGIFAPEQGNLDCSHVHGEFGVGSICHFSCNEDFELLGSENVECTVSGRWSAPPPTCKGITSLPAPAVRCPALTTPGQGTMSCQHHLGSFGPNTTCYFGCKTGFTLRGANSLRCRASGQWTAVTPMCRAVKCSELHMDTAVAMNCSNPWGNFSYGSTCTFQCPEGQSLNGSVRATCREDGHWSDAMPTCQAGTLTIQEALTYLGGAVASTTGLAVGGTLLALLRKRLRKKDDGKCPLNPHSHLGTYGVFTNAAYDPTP
Protocol: M-CSCs (1×10^7) derived from SKOV-3 and ovarian cancer patients were fluorescently labeled with CMFDA and i.p. injected into NOD/SCID mice. To inhibit P-selectin, KF38789 (1 mg kg^−1, 2748, Tocris) or vehicle control were injected into the peritoneal cavity of mice 1 h prior to cell injection. Mice were sacrificed after 16 h and the peritoneal cavity was washed with PBS to remove non-adherent cells. Fluorescent signal from adherent tumor cells was acquired in the IVIS Spectrum and peritoneum, mesentery, and omentum were lysed with 1% NP-40 and fluorescence was measured with VICTOR (PerkinElmer).

[5] = shear stress around 1 dynes cm^-2

P-selectin recombinant protein, sequence (P16109 with tags, fused parts or gaps limits assumed, species assumed): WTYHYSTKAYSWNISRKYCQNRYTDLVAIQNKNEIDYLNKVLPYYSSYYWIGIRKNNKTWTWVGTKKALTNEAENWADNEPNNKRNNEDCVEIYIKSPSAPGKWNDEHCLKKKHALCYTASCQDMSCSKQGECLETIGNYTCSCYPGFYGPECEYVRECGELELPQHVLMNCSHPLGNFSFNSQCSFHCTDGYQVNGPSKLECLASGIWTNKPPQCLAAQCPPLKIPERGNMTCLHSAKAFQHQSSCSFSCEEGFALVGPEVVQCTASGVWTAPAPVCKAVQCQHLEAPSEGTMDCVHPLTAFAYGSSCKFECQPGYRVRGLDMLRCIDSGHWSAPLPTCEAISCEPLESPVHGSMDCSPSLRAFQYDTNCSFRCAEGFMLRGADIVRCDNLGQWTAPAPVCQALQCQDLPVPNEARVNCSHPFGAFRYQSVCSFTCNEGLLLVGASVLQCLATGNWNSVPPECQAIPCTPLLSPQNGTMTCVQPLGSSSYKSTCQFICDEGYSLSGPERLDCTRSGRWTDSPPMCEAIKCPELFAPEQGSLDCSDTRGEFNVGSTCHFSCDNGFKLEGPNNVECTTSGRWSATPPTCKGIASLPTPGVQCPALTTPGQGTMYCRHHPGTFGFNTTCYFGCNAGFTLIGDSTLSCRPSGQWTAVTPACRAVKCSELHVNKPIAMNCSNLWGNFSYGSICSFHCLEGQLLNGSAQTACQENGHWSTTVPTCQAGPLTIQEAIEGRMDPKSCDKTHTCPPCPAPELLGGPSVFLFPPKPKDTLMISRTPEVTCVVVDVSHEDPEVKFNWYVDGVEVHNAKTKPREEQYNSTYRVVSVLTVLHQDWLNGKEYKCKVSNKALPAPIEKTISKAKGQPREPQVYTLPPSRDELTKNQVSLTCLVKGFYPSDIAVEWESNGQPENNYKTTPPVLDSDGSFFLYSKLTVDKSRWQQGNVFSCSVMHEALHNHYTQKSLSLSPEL

| effect on M-CSCs binding/adhesion to HPMCs [1] | effect on M-CSCs binding/adhesion to P-selectin-Fc [2] | detachment of captured HM cells from P-selectin-coated channel bottom [3] | extent of tumor metastases on the omentum, mesenteries and peritoneal wall [4] | Compound | detachment of adherent M-CSCs from HPMCs [1, 5] | detachment of adherent M-CSCs from P-selectin chimera [2, 5] |
| --- | --- | --- | --- | --- | --- | --- |
| inhibited the adhesion | – | easily detached | – | O=C(O)CN(CCN(CC(=O)O)CC(=O)O)CC(=O)O [EDTA] | easily detach | easily detach |
| – | – | – | significantly inhibited | COc1ccc(C2CC(c3c(O)cc(C)oc3=O)=NCCS2)c(OC)c1 (stereo not drawn) [KF38789] | – | – |
| had no effect | had no effect | – | – | CCCCCCCCCCCCCCCC(=O)N[C@H](CN1CCOCC1)[C@H](O)c1ccccc1 [PPMP] | – | – |
| marked decrease | marked decrease | – | – | O=c1c(-c2ccc(O)cc2)coc2cc(O)cc(O)c12 [genistein] | – | – |
| almost completely abolished the adhesion | almost completely abolished the adhesion | – | – | trypsin | – | – |

| Compound | effect on M-CSCs binding/adhesion to HPMCs [1] | effect on M-CSCs binding/adhesion to P-selectin-Fc [2] | detachment of captured HM cells from P-selectin-coated channel bottom [3] | extent of tumor metastases on the omentum, mesenteries and peritoneal wall [4] | detachment of adherent M-CSCs from HPMCs [1, 5] | detachment of adherent M-CSCs from P-selectin chimera [2, 5] |
| --- | --- | --- | --- | --- | --- | --- |
| CC(C)(C)c1cc(C=C(C#N)C#N)cc(Br)c1O [AG1024] | marked decrease | marked decrease | – | – | – | – |
| [Na+].[O-][Cl+2]([O-])[O-] [sodium chlorate] | did not alter the binding activity | did not alter the binding activity | – | – | – | – |
